Our source for the IC50 and Km values is PMC3578862, “Single Residue Mutation in Active Site of Serine Acetyltransferase Isoform 3 from Entamoeba histolytica Assists in Partial Regaining of Feedback Inhibition by Cysteine” (PLoS ONE, 2013).

Data set [1] addresses T1, Serine acetyltransferase isoform 3 (EhSAT3) (Entamoeba histolytica, UniProt Q401L4, S208H).
T1 construct: gene SAT 3
As to the kind of experiment: SAT activity assay at […] nm, […] serine; […] inhibition at […]. The data set is classed as biochemical.

For data set [2], the target named is T2, Serine acetyltransferase isoform 1 (EhSAT1) (Entamoeba histolytica, UniProt Q9U8X2, H208S).
T2 construct: gene EhSAT
As to the kind of experiment: SAT activity assay at […] nm, […] serine. The data set is classed as biochemical.

The next data set has as its system N[C@@H](CO)C(=O)O. The data set is described as follows: purified protein. In kind it is biochemical, Entamoeba histolytica. The following applies: acetyl coenzyme A active site.

The IC50 is the concentration at which inhibition is half-maximal. Higher therefore signals weaker potency in that assay. On to `N[C@@H](CS)C(=O)O` [L-cysteine], for which the concentration for half-maximal inhibition (IC50) in data set [1] was 3.5 mM; in data set [2], 0.17 mM.
The Km is the substrate concentration at which the rate is half of its maximum. Turning to “Serine acetyltransferase isoform 3 (EhSAT3) (Entamoeba histolytica; S208H)”, the Km in the data set on N[C@@H](CO)C(=O)O came to 185.5 µM.
On to “Serine acetyltransferase isoform 1 (EhSAT1) (Entamoeba histolytica; H208S)”, for which the Km with N[C@@H](CO)C(=O)O stood at 68.4 µM.
